Where two headings read alike, the source gives them in different places.
What was measured:
human 5-HT1A receptor = biological target: human 5-HT1A receptor; design: method as in PMID 24900203; conditions: cited from earlier work
5-HT7Mco1 = 5-HT7Mco1 (Mesocestoides corti, UniProt A0A482LRJ4); experiment: cell-based; format: cell-based
Protocol: (§1) HEK-293 cells (ATCC CRL-1573.3) were cultured in growth media [DMEM (Gibco), 10% heat inactivated fetal bovine serum (Gibco), penicillin (100units/mL), streptomycin (100μg/mL) and L-glutamine (290μg/mL)] and used for assays between passages 5 and 25. For cestode GPCR heterologous expression assays, cells were transfected (Lipofectamine 2000, Invitrogen) at 80% confluency approximately 16 hours after seeding within T-25 culture flasks with a 1:1 ratio of human codon optimized cestode GPCR cDNA (subcloned into a pcDNA3.1(-) mammalian expression vector) and cDNA encoding the pGloSensor 22-F plasmid (Promega). The following day, cells were trypsinized, centrifuged (300g/5min), resuspended in DMEM supplemented with 1% dialyzed FBS (Gibco) and plated in 96 well, solid white plates (Corning, cat # 3917). After overnight culture to allow adherence, media was exchanged for assay buffer (HBSS supplemented with 0.1% BSA, 20mM HEPES (pH 7.4), and GloSensor reagent (Promega). cAMP-luminescence assays were performed following addition of a phosphodiesterase inhibitor (3-isobutyl-1-methylxanthine, IBMX; 200μM) using a GloMax-Multi Detection System plate reader (Promega) as described previously.

5-HT7Egran2 = 5-HT7Egran2 (Echinococcus canadensis, UniProt A0A482LXK0); experiment: cell-based; format: cell-based, Echinococcus granulosus
Protocol: as §1

5-HT7Egran1 = 5-HT7Egran1 (Echinococcus canadensis, UniProt A0A482LU10); experiment: cell-based; format: cell-based, Echinococcus granulosus; conditions: for pharmacological behaviour (agonist/antagonist, efficacy) in cAMP assay: 5-HT7Egran1
Protocol: as §1

[1] = tested on: Mesocestoides corti tetrathyridia; experiment: Motility of tetrathyridia by video imaging; conditions: period of 30 minutes
Protocol: In some experiments, alongside to the worm tracker motility analyses, the parasite motor activity was also measured with a digital video camera (Kodak easy share Z915 digital camera) coupled to an inverted microscope (Nikon, model TMS-F). Fresh parasites were processed in the same way as in previous sections in U-shape 96-well microplates, then incubated overnight at 37°C in a 5% CO2 atmosphere and finally video recorded with a digital camera after drug treatment. Images were obtained for a period of 15 seconds and the data were analyzed with ImageJ software (version 1.48, NIH, USA). […] To quantify this type of movements the method of Patocka et al. was followed with some modifications. The videos were transformed to stacks of TIFF images by using the Filmora video editor (Wondershare Filmora, version 8.2.3, downloaded from https://filmora.wondershare.es/) and then imported into ImageJ. First, the stacks were first converted to 8 bit type images. Next, the background was subtracted and then converted to a binary image by threshold adjust. […]
Statistical analyses were carried out using the GraphPad Prism Software package, version 6 for Windows (GraphPad Software, CA, USA). […] For image based assays, pixel changes in control and treatments were calculated and analyzed with one way ANOVA and Dunnett post-test were performed comparing all the concentrations with the control. […]

[2] = tested on: Mesocestoides corti tetrathyridia; design: method as in PMID 12003065; conditions: 30 minutes of incubation; cited from earlier work
[3] = tested on: Mesocestoides corti tetrathyridia; experiment: Motility index of tetrathyridia, WMicrotracker (light scattering)
Protocol: For the motility index measurement, the method of Camicia et al. was followed with minor modifications. In the case of E. granulosus, protoscoleces were mantained in RPMI medium with high glucose (Gibco, USA) with 50 μg/ml of gentamicin for no more than 48 hours in order to avoid the potential differentiation of the protoscolex towards premicrocyst. The day before the experiment the protoscoleces were transferred to U-shape 96-well microplates (Greiner Bio-One, Germany) with approximately 125 parasites per 100 μl per well. This number of parasites per well was empirically determined as the best number of worms to perform the experiments. Movement was measured as described for C. elegans using a worm tracker device (WMicrotracker Designplus SRL, Argentina) which determines the motility index by the light-microbeam (100 μm wide; k = 880 nm; intensity <1 mW) scattering produced by the movement of parasites. Quantification of the signal was performed by applying a mathematical algorithm previously described for sperm viability determination (Patent number: US4176953, year of submission: 1978, year of publication: 1979).
To study the effect of 5-HT on the motility of M. corti tetrathyridia, only one worm per well was used as this was the empirically determined optimal number. […] M. corti tetrathyridia were used fresh, immediately after the mice was opened. […]

5-HT7Mco1, sequence (A0A482LRJ4 entry or part of it): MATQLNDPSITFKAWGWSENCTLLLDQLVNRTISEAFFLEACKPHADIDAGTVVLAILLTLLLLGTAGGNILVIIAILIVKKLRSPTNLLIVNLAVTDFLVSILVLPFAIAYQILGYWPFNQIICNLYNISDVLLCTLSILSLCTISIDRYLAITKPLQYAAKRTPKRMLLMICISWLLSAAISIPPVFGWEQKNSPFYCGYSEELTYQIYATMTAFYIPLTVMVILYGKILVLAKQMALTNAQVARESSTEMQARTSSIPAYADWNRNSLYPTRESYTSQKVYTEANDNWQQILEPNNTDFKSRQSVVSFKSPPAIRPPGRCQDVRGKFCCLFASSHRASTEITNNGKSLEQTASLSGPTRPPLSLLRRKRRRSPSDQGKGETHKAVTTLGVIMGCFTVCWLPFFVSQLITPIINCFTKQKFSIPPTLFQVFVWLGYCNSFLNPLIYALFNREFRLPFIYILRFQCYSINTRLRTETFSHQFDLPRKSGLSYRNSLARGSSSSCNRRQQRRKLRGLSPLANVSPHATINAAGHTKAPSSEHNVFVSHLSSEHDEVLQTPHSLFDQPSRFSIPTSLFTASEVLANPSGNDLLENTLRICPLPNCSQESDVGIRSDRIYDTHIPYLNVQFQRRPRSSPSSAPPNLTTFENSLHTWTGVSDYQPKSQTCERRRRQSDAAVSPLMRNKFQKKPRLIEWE
5-HT7Egran2, sequence (A0A482LXK0 entry or part of it): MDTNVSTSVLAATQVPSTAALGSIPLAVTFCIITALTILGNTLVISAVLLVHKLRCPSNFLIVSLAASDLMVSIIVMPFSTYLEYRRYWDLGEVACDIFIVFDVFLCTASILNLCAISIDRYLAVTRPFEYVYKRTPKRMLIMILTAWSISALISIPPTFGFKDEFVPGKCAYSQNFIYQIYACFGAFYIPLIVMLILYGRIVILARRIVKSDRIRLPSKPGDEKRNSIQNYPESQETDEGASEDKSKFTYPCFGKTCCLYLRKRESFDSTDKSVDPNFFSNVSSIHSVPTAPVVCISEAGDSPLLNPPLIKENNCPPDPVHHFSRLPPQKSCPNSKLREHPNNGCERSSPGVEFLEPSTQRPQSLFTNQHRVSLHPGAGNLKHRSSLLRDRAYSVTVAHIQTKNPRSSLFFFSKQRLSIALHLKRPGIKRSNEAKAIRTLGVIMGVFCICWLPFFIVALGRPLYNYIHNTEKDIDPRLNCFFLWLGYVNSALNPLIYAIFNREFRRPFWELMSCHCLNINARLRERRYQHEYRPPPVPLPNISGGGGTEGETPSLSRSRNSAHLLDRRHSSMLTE
5-HT7Egran1, sequence (A0A482LU10 entry or part of it): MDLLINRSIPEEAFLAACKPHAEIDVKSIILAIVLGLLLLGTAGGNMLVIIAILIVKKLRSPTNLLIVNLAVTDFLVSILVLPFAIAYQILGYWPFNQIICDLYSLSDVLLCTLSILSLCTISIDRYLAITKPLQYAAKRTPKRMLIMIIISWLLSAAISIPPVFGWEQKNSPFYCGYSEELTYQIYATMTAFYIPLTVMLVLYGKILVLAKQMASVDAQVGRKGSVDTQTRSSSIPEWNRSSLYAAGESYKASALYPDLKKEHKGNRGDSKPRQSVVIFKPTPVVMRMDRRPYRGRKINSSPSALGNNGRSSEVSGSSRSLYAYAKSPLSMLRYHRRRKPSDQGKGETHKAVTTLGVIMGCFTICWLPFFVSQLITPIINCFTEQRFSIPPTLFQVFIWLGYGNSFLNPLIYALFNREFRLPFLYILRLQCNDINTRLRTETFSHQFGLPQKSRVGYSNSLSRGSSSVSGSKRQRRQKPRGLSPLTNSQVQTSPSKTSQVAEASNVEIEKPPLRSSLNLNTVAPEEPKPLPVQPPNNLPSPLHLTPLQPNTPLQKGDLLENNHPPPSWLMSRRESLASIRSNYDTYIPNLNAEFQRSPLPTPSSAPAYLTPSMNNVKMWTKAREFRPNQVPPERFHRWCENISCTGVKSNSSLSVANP

Row | Structure (SMILES) | EC50 (5-HT7Mco1) [µM] | EC50 (5-HT7Egran2) [µM] | pharmacological behaviour (agonist/antagonist, efficacy) in cAMP assay (5-HT7Mco1; 5-HT7Mco1) | pharmacological behaviour (agonist/antagonist, efficacy) in cAMP assay (5-HT7Egran2; 5-HT7Egran2) | EC50 (5-HT7Egran1) [µM] | pharmacological behaviour (agonist/antagonist, efficacy) in cAMP assay (5-HT7Egran1) | other results
1 | CN(C)c1cccc2c(S(=O)(=O)NCCCCC34CCCN3C(=O)N(CCCCN3CCN(c5cccc6ccccc56)CC3)C4=O)cccc12 (centres unmarked) [UCM120] | – | – | – | – | – | – | Ki (human 5-HT1A receptor): 0.002 µM
2 | NCCc1c[nH]c2ccccc12 [tryptamine] | ~1 | ~0.8 | – | – | – | – | cAMP response to neurotransmitter (activation) (5-HT7Mco1; 10μM, cells expressing 5-HT7Mco1): activator; sensitivity to tryptamine relative to 5-HT (fold less sensitive) (5-HT7Mco1; 5-HT7Mco1): at least 1000 fold; cAMP response to neurotransmitter (activation) (5-HT7Egran2; 10μM, cells expressing 5-HT7Egran2): activator; sensitivity to tryptamine relative to 5-HT (fold less sensitive) (5-HT7Egran2; 5-HT7Egran2): at least 1000 fold
3 | CCN(CC)C(=O)[C@@H]1C=C2c3cccc4[nH]cc(c34)C[C@H]2N(C)C1 [LSD, Lysergic acid diethylamide] | 0.0044 ± 0.001 | – | potently activated | antagonist | 0.035 ± 0.006 | potently activated | IC50 (5-HT7Egran2): 0.0029 ± 0.0002 µM
4 | CN1C[C@H](C(=O)N[C@]2(C)O[C@@]3(O)[C@@H]4CCCN4C(=O)[C@H](Cc4ccccc4)N3C2=O)C=C2c3cccc4[nH]cc(c34)C[C@H]21 [ergotamine] | 0.354 ± 0.062 | 0.234 ± 0.037 | higher efficacy partial agonist | higher efficacy partial agonist | 0.29 ± 0.049 | low efficacy partial agonist | –
5 | NCCc1c[nH]c2ccc(O)cc12 [5-HT, 5-hydroxytryptamine] | 0.000255 ± 6.3e-05 | – | – | – | 0.171 ± 0.057 | – | concentration necessary for significant changes in motility [1]: 1000 µM; fold-change in luminescence signal on addition of 5-HT (5-HT7Mco1; cells expressing 5-HT7Mco1, basal coupling): ~ 2.5 fold; concentration previously reported to stimulate tetrathyridia motility [2]: 100 nM; concentration from which stimulation of motility is observed ([3]; 30 minutes of incubation, light scattering method): ≥ 500 µM; concentration from which a significant rise of motility is seen ([3]; period of two hours, WMicrotracker, up to 2000 μM): ≥ 100 µM; EC50 (5-HT7Egran2; HEK-293 cells expressing 5-HT7Egran2, IBMX 200μM, read-out: EC50 for evoked cAMP production): 0.000543 ± 0.000107 µM; fold-change in luminescence signal on addition of 5-HT (5-HT7Egran2; cells expressing 5-HT7Egran2, basal coupling): ~ 3.3 fold; fold-change in luminescence signal on addition of 5-HT (5-HT7Egran1; cells expressing 5-HT7Egran1): ~ 20 fold

From PMC5823469, “Unique pharmacological properties of serotoninergic G-protein coupled receptors from cestodes” (PLoS Neglected Tropical Diseases, 2018)
